Tests used:
[1] = target: T1, Fructose-bisphosphate aldolase class 2 (Escherichia coli K-12, UniProt P0AB71); test: Inhibitory activity against class II FBP aldolase from Escherichia coli
T1 sequence (P0AB71 whole entry): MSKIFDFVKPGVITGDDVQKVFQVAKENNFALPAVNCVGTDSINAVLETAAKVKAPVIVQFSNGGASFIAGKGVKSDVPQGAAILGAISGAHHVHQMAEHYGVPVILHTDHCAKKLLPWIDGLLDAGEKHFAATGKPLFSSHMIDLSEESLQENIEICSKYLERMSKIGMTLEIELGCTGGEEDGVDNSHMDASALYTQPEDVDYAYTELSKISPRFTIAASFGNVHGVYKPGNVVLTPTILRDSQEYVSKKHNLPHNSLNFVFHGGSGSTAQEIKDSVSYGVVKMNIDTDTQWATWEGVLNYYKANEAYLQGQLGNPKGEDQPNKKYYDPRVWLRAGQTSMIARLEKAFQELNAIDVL

[2] = target: T2, Fructose-bisphosphate aldolase A (Oryctolagus cuniculus, UniProt P00883); test: Inhibitory activity against class I FBP aldolase from rabbit
T2 sequence (P00883 whole entry): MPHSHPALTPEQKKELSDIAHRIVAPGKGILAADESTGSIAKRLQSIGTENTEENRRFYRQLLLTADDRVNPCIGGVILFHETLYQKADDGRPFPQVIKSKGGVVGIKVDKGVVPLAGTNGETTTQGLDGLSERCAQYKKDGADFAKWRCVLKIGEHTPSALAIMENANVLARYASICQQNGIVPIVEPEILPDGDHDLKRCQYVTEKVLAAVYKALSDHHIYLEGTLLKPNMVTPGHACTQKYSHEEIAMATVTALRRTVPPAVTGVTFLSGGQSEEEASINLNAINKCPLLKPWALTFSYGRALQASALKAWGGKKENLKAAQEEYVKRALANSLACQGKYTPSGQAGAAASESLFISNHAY

SMILES | Ki [1] [µM] | Ki [2] [mM]
O=C(CCP(=O)(O)O)NO | > 1000 | > 1
O=C(CCP(=O)(O)O)NS(=O)(=O)c1ccccc1 | > 10000 | > 10
O=C(COP(=O)(O)O)NS(=O)(=O)c1ccccc1 | 100 | > 10
CS(=O)(=O)NC(=O)CCP(=O)(O)O | > 10000 | > 10
CS(=O)(=O)NC(=O)COP(=O)(O)O | 350 | > 10
O=C(COP(=O)(O)O)NO [PHOSPHOGLYCOLOHYDROXAMATE] | 0.01 | 0.001
